Data reported in PubChem BioAssay (NCI).
Values joined by “and” are separate entries in the source; they are usually repeats but may differ in a detail not shown here. Equal entries are not always repeated.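 Grown in 96-well plates, cells were treated for 48 hours with each compound at five concentrations. Insufficient inhibition: endpoint recorded as highest concentration tested. At the GI50, growth is halved. At the TGI there is no net growth.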

Experiments:
Experiment in all cases: NCI tumour cell line growth inhibition, 48 h
SNB-78 CNS = tested on: SNB-78 CNS
M19-MEL melanoma = tested on: M19-MEL melanoma
LXFL 529 NSCLC = tested on: LXFL 529 NSCLC
KM20L2 colon = tested on: KM20L2 colon
P388/ADR leukemia = tested on: P388/ADR leukemia
P388 leukemia = tested on: P388 leukemia
SN12K1 renal = tested on: SN12K1 renal
DMS 273 small cell lung = tested on: DMS 273 small cell lung
DLD-1 colon = tested on: DLD-1 colon
HOP-18 NSCLC = tested on: HOP-18 NSCLC
XF 498 CNS = tested on: XF 498 CNS
RXF-631 renal = tested on: RXF-631 renal

SMILES | TGI (SNB-78 CNS) | TGI (M19-MEL melanoma) | TGI (LXFL 529 NSCLC) | TGI (KM20L2 colon) | TGI (P388/ADR leukemia) | TGI (P388 leukemia) | TGI (SN12K1 renal) | TGI (DMS 273 small cell lung) | TGI (DLD-1 colon) | TGI (HOP-18 NSCLC) | TGI (XF 498 CNS) | TGI (RXF-631 renal) | GI50 (RXF-631 renal) | GI50 (SNB-78 CNS) | GI50 (M19-MEL melanoma) | GI50 (LXFL 529 NSCLC) | GI50 (DMS 273 small cell lung) | GI50 (DLD-1 colon)
COC1CCC(OS(C)(=O)=O)CO1 (stereo unspecified) | > 100 µM | > 100 µM | > 100 µM | > 100 µM | – | – | – | – | – | – | – | – | – | – | – | – | – | –
CN1CCC23c4ccccc4NC1C21CCN(C)C3Nc2ccccc21 | > 158 µM | > 375 µM | – | > 350 µM | > 375 µM | > 124 µM | > 275 µM | > 375 µM | > 375 µM | > 375 µM | – | – | – | – | – | – | – | –
S=C(NCCCCCCNC(=S)Nc1c2ccccc2nc2ccccc12)Nc1c2ccccc2nc2ccccc12 | > 100 µM | > 100 µM | – | > 100 µM | > 100 µM | > 100 µM | > 25.1 µM | > 100 µM | > 100 µM | > 100 µM | > 100 µM | – | – | – | – | – | – | –
C=CCOCCCC(=O)C(=[N+]=[N-])C(=O)OC | > 100 µM | > 100 µM | > 100 µM | > 100 µM | – | – | – | – | > 100 µM | > 100 µM | > 100 µM | > 100 µM | – | – | – | – | – | –
Cc1c(N)nc([C@H](CC(N)=O)NC[C@H](N)C(N)=O)nc1C(=O)N[C@H](C(=O)N[C@H](C)[C@@H](O)[C@H](C)C(=O)N[C@H](C(=O)NCCc1nc(-c2nc(C(=O)NCCC[S+](C)C)cs2)cs1)[C@@H](C)O)C(OC1OC(CO)C(O)C(O)C1OC1OC(CO)C(O)C(OC(N)=O)C1O)c1cnc[nH]1 (stereo partly specified) | 24.9 µM and > 29 µM | 25 µM and 29 µM | 23.6 µM and > 29 µM | 24.3 µM and 29 µM | 20 µM | 18.5 µM | 21 µM | 7.82 µM and 29 µM | 23.7 µM and > 29 µM | 13.3 µM | 13.5 µM | 17.7 µM and 10.4 µM | 0.372 µM | > 29 µM | 12.9 µM | > 29 µM | 0.0709 µM | > 29 µM
CC(=O)C1=C(O)C2(O)C(=O)c3c(c(C)c4ccc(C)c(O)c4c3O)CC2C(N)C1=O (stereo unspecified) | – | 11 µM | 10.2 µM | 14.7 µM | – | – | – | 5.54 µM | 11.7 µM | 13.4 µM | 5.09 µM | 11.2 µM | – | – | – | – | – | –
CN(C)CCNc1c([N+](=O)[O-])cc2c3c(cccc13)C(=O)N(CCN(C)C)C2=O | 7.21 µM | 3.28 µM | – | 5.87 µM | 4.9 µM | 2.62 µM | – | 2.95 µM | 6.02 µM | 4.6 µM | 3.92 µM | – | – | – | – | – | – | –
Cc1c2c(cc3c1[nH]c1ccccc13)C(c1ccc(F)cc1)=NCC2 | 9.03 µM | 5.44 µM | – | 5.52 µM | 5 µM | 1.97 µM | 2.16 µM | 2.29 µM | 6.45 µM | 14.5 µM | 5.67 µM | – | – | – | – | – | – | –
